# Laboratory results as given in patent EP4800013A1, “PARG INHIBITOR” (Shanghai Qilu Pharmaceutical Research and Development …, priority 2023, dated 2025).
# Tested on: KURAMOCHI cells
# Assay: Inhibition of proliferation of KURAMOCHI cells (CellTiter-Glo, intracellular ATP)
# Type: cell-based
# Conditions: 168 h, incubated for 7 days, read-out: IC50 against KURAMOCHI cells
# Description: In this experiment, the inhibitory effect of the compounds of the present disclosure on the proliferation of the cancer cell line KURAMOCHI was evaluated by measuring intracellular ATP levels using a bioluminescent assay, and the half maximal inhibitory concentration (IC50) was determined.
# RPMI 1640 medium (Cat. No. 11875-093), fetal bovine serum (10099-141), and 100× Pen/Strep (15070-063) were purchased from GIBCO. CellTiter-Glo Luminescent Cell Viability Assay reagent (Cat. No. G7573) was purchased from Promega.
# • 1) Day 1: KURAMOCHI cells were counted using a cell counter and seeded into a 96-well culture plate at a density of 4000 cells per well in 100 µL medium. The plate was incubated overnight in an incubator (37°C, 5% CO2). • 2) Day 2: Using a D300e digital dispenser (TECAN), 500 nL of serially diluted test compounds of the present disclosure (starting at 10 µM, a total of 9 concentrations, 1:4 dilution) were added to the cells in the culture plate. The final concentration of DMSO was 0.5%. The cell culture plate was incubated for 7 days in a cell culture incubator (37°C, 5% CO2). Control group 1 received only medium and DMSO (100% inhibition group). Control group 2 received only DMSO (0% inhibition group). The final concentration of DMSO in both groups was 0.5%. • 3) Day 9: 100 µL of CellTiter-Glo reagent was added to each well. The plate was shaken at 500 rpm for 2 minutes, centrifuged at 1000 rpm for 1 minute, and then incubated at room temperature in the dark for 10 minutes to stabilize the luminescence signal. • 4) Luminescence signals were measured using an EnVision microplate reader (PerkinElmer). • 5) Data analysis was performed using GraphPad Prism 8. The IC50 values of the compounds of the present disclosure were calculated as follows. The CTG signal values were analyzed. The average inhibition rate of control group 1 (100% inhibition group) was set as the relative inhibition rate of 100%. The average inhibition rate of control group 2 (0% inhibition group) was set as the relative inhibition rate of 0%. The CTG signal values were converted into relative inhibition rates. The inhibition percentage (inhibition%) for each concentration of the compounds of the present disclosure was calculated according to the following formula: Inhibition% = (b−x)/(b−a)*100%; [formula] • a = CTG value (highest concentration), b = CTG value (blank well), x = CTG value (test well). • IC50 was calculated using GraphPad Prism 8. • (1) The concentration and inhibition rate corresponding to each well were recorded. Statistical calculation was performed using Log10 (compound concentration). • (2) The data were input into GraphPad Prism 8 and Analysis was selected. • (3) Nonlinear regression (curve fit) was selected. • (4) Log (inhibitor) vs. response - Variable slope was selected. • (5) The calculation formula was selected, and the calculation was performed according to the following formula: Y = Bottom + (Top - Bottom) / (1 + 10 ^ ((LogIC50 - X) * HillSlope)); X: log of dose or concentration; Y: response; Top and Bottom: maximum and minimum response. • (6) The IC50 values were calculated by fitting the data. Table 16: Inhibitory effect of the compounds of the present disclosure on the proliferation of KURAMOCHI cells
row,SMILES,IC50 [nM]
1,C=CCn1c(=O)n(-c2nnc(C(F)F)s2)c2cc(S(=O)(=O)NC3(C#N)CC3)cc(N3CCN(C(=O)C(C)(C)OC)CC3)c21 [Compound 067L],4
2,C=CC1CN(c2cc(S(=O)(=O)NC3(C)CC3)cc3c2cnn3-c2nnc(C(F)F)s2)C[C@H](C)N1 (some centres unmarked) [Compound 078A],30
3,C=C[C@H]1CN(c2cc(S(=O)(=O)NC3(C)CC3)cc3c2cnn3-c2nnc(C(F)F)s2)C[C@H](C=C)N1 [Compound 078C],15
4,C[C@H]1CN(c2cc(S(=O)(=O)NC3(C)CC3)cc3c(-c4nnc(C(F)F)s4)noc23)C[C@H](C)N1 [Compound 021B],11
5,C=CCn1c(=O)n(-c2nnc(C(F)F)s2)c2cc(S(=O)(=O)NC3(C#N)CC3)cc(N3CCN(C(=O)C4CC(F)(F)C4)CC3)c21 [Compound 072D],52
6,C#CC1CN(c2cc(S(=O)(=O)NC3(C)CC3)cc3c2cnn3-c2nnc(C(F)F)s2)C[C@H](C)N1 (some centres unmarked) [Compound 078B],34
7,C[C@H]1CN(c2cc(S(=O)(=O)NC3(C)CC3)cc3c2nc(-c2nccs2)n3-c2nnc(C(F)F)s2)C[C@H](C)N1 [Compound 077S],58
8,C=CCn1c(=O)n(-c2nnc(C(F)F)s2)c2cc(S(=O)(=O)NC3(C#N)CC3)cc(N3CC4CC3CN4S(=O)(=O)C(C)C)c21 (centres unmarked) [Compound 069E],55

# Biological target: T1, PARG (Homo sapiens, UniProt Q86W56)
# T1 construct: made in house
# T1 sequence (Q86W56 whole entry): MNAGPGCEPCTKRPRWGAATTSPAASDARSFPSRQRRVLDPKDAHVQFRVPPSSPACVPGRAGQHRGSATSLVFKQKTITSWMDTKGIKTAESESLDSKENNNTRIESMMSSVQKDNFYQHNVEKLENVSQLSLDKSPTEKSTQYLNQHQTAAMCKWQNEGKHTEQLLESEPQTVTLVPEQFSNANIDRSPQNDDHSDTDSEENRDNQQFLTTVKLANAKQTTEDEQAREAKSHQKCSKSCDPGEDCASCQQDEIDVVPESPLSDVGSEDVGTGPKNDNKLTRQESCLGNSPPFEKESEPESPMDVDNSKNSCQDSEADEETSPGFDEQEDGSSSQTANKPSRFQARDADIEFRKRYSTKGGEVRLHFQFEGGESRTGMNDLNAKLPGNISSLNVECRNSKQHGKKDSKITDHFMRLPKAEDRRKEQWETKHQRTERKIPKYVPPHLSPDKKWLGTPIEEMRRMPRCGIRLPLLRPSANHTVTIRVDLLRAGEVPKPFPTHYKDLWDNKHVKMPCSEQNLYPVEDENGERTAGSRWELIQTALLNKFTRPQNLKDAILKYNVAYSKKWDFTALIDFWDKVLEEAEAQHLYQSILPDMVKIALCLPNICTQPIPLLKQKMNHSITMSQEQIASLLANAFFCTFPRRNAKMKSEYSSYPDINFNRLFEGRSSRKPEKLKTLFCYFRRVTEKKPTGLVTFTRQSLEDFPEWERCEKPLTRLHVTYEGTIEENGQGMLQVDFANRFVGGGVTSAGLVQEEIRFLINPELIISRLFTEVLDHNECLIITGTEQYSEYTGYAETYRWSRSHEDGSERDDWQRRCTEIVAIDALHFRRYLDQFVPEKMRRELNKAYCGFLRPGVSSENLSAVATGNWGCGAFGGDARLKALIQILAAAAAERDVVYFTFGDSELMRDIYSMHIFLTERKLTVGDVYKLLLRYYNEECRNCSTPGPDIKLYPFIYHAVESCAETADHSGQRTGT
# Assay: Enzymatic inhibitory activity against PARG, HTRF assay
# Type: biochemical
# Conditions: HTRF; PARylated PARP1 protein as substrate; 60 minutes at room temperature; read-out: IC50 against PARG enzyme
# Description: In this experiment, the enzymatic inhibitory activity of the compounds of the present disclosure against PARG was determined using an HTRF (homogeneous time-resolved fluorescence) assay.
# HTRF assay reagents were purchased from PerkinElmer (Cat. Nos. 61HISTLB and 610SAXLB). The purified protein was prepared in-house.
# PARG enzyme reaction buffer: 50 mM Tris (pH 7.4), 0.1 mg/mL BSA, 3 mM EDTA, 0.4 mM EGTA, 1 mM DTT, 50 mM KCl, and 0.01% Tween 20.
# • 1) Using an ultra-micro pipette, the compounds of the present disclosure were serially diluted (starting at 10 µM with 3- to 5-fold serial dilutions) and added to a 384-well reaction plate, with each concentration tested in duplicate wells. Control group 1 was added with 10 µM control compound (100% inhibition group). Control group 2 was added with DMSO (0% inhibition group). After compound addition, the 384-well plate was centrifuged at 1000 rpm for 1 minute. • 2) 2.5 µL of PARG protein was added to each well and incubated with the compounds of the present disclosure at room temperature for 15 minutes, followed by centrifugation at 1000 rpm for 1 minute. • 3) 2.5 µL of PARylated PARP1 protein was added to each well and incubated at room temperature for 60 minutes, followed by centrifugation at 1000 rpm for 1 minute. • 4) 5 µL of His-Tb & SA-XL665 HTRF assay reagents were added to each well and incubated at room temperature for 60 minutes, followed by centrifugation at 1000 rpm for 1 minute. • 5) […] were measured using a PHERAstar FSX microplate reader from BMG. • 6) Data analysis was performed using GraphPad Prism 8. The IC50 values of the compounds of the present disclosure were calculated as follows. […] The average value of duplicate wells in control group 2 (0% inhibition group) was set as the relative inhibition rate of 0%. The HTRF signal values were converted into relative inhibition rates. The IC50 values of the compounds were calculated by fitting the data to a four-parameter logistic model. Table 15: Enzymatic inhibitory activity of the compounds of the present disclosure against PARG
row,SMILES,IC50 [nM]
1,C=CCn1c(=O)n(-c2nnc(C(F)F)s2)c2cc(S(=O)(=O)NC3(C#N)CC3)cc(N3CCN(C(=O)C(C)(C)OC)CC3)c21 [Compound 067L],4.9
2,C=CCn1c(=O)n(-c2nnc(C(F)F)s2)c2cc(S(=O)(=O)NC3(C#N)CC3)cc(N3CCN(C(=O)C4(C)CCCN4)CC3)c21 (centres unmarked) [Compound 076B],9.7
3,C=CCn1c(=O)n(-c2nnc(C(F)F)s2)c2cc(S(=O)(=O)NC3(C#N)CC3)cc(N3CCN(C(=O)C4CCCN4)CC3)c21 (centres unmarked) [Compound 076C],8.6
4,C=CCn1c(=O)n(-c2nnc(C(F)F)s2)c2cc(S(=O)(=O)NC3(C#N)CC3)cc(N3CCN(C(=O)C(C)C)[C@H](C)C3)c21 [Compound 069D],23.5
5,C[C@H]1CN(c2cc(S(=O)(=O)NC3(C)CC3)cc3c2cc(N=S(C)(C)=O)n3-c2nnc(C(F)F)s2)C[C@H](C)N1 [Compound 082E],5.5
6,C=CCn1c(=O)n(-c2nnc(C(F)F)s2)c2cc(S(=O)(=O)NC3(C#N)CC3)cc(N3CCN(C(=O)NC)CC3)c21 [Compound 067M],29
7,CC(C)(O)C(=O)N1CCN(c2cc(S(=O)(=O)NC3(C#N)CC3)cc3c2ncn3-c2nnc(C(F)F)s2)CC1 [Compound B015],15.8
8,CC(C)C(=O)N1CCN(c2cc(S(=O)(=O)NC3(C#N)CC3)cc3c2n(C2CC2)c(=O)n3-c2nnc(C(F)F)s2)CC1 [Compound A055],11.9
9,CN(C)C(=O)N1CC=C(c2cc(S(=O)(=O)NC3(C#N)CC3)cc3c2ncn3-c2nnc(C(F)F)s2)CC1 [Compound B022],18.7
10,C=CCn1c(=O)n(-c2nnc(C(F)F)s2)c2cc(S(=O)(=O)NC3(C#N)CC3)cc(N3CCN(c4ncc[nH]4)CC3)c21 [Compound 067JD],31.6
11,C[C@H]1CN(c2cc(S(=O)(=O)NC3(C#N)CC3)cc3c2nc(C2CCCO2)n3-c2nnc(C(F)F)s2)C[C@H](C)N1 (some centres unmarked) [Compound 077J],10.4
12,C=CCn1c(=O)n(-c2nnc(C(F)F)s2)c2cc(S(=O)(=O)NC3(C#N)CC3)cc(N3CCN(C(=O)C4CCCN4C)CC3)c21 (centres unmarked) [Compound 076D],14.7
13,C[C@H]1CN(c2cc(S(=O)(=O)NC3(C)CC3)cc3c2ncn3-c2nnc(C(F)F)s2)C[C@H](C)N1C(=O)N(C)C [Compound B005],11.5
14,C[C@H]1CN(c2cc(S(=O)(=O)NC3(C)CC3)cc3c2nc([C@@H]2CC4(CC4)CO2)n3-c2nnc(C(F)F)s2)C[C@H](C)N1 [Compound 079M2],1.9
15,CC(C)C(=O)N1CC=C(c2cc(S(=O)(=O)NC3(C#N)CC3)cc3c2ncn3-c2nnc(C(F)F)s2)CC1 [Compound B023],16.7
16,C=CCn1c(=O)n(-c2nnc(C(F)F)s2)c2cc(S(=O)(=O)NC3(C#N)CC3)cc(N3CCN(C(=O)NC4CC4)CC3)c21 [Compound A054],38.6
17,CC(C)S(=O)(=O)N1CCN(c2cc(S(=O)(=O)NC3(C#N)CC3)cc3c2nc(OC2CC2)n3-c2nnc(C(F)F)s2)CC1 [Compound 057P],29.3
18,C[C@H]1CN(c2cc(S(=O)(=O)NC3(C)COC3)cc3c2nc(C2CCCO2)n3-c2nnc(C(F)F)s2)C[C@H](C)N1 (some centres unmarked) [Compound 077K],12.8
19,C[C@H]1CN(c2cc(S(=O)(=O)NC3(C)CC3)cc3c2n2ccnc2n3-c2nnc(C(F)F)s2)C[C@H](C)N1 [Compound B024],16.5
20,C=CCn1c(=O)n(-c2nnc(C(F)F)s2)c2cc(S(=O)(=O)NC3(C#N)CC3)cc(N3CCN(C(=O)[C@@H]4CCC5(CC5)N4)CC3)c21 [Compound 076F1],30.6
21,C[C@H]1CN(c2cc(S(=O)(=O)NC3(C)CC3)cc3c2nc(C2CCOC2)n3-c2nnc(C(F)F)s2)C[C@H](C)N1 (some centres unmarked) [Compound 079N],6.2
22,C[C@H]1CN(c2cc(S(=O)(=O)NC3(C)CC3)cc3c2nc(C2CNCCO2)n3-c2nnc(C(F)F)s2)C[C@H](C)N1 (some centres unmarked) [Compound 077Y],10.3
23,C=CCn1c(=O)n(-c2nnc(C(F)F)s2)c2cc(S(=O)(=O)NC3(C#N)CC3)cc(N3CCN(S(=O)(=O)c4ccn(C)n4)CC3)c21 [Compound 075B],35.7
24,C=CCn1c(=O)n(-c2nnc(C(F)F)s2)c2cc(S(=O)(=O)NC3(C#N)CC3)cc(N3CCN(C(=O)C(C)(C)NC(=O)OC)CC3)c21 [Compound 076A],13
25,CC(C)S(=O)(=O)N1CCN(c2cc(S(=O)(=O)NC3(C#N)CC3)cc3c2n(C2CC2)c(=O)n3-c2nnc(C(F)F)s2)CC1 [Compound A056],5.2
26,C=CCn1c(=O)n(-c2nnc(C(F)F)s2)c2cc(S(=O)(=O)NC3(C#N)CC3)cc(N3CCN(C(=O)C4CCC(=O)N4)CC3)c21 (centres unmarked) [Compound 076G],9
27,CN(C)C(=O)N1CCN(c2cc(S(=O)(=O)NC3(C#N)CC3)cc3c2n(CC(F)(F)F)c(=O)n3-c2nnc(C(F)F)s2)CC1 [Compound A044],7
28,CC(C)C(=O)N1CCN(c2cc(S(=O)(=O)NC3(C#N)CC3)cc3c2n(CC#N)c(=O)n3-c2nnc(C(F)F)s2)CC1 [Compound 074J],10.8
29,C[C@H]1CN(c2cc(S(=O)(=O)NC3(C)CC3)cc3c2c2nccnc2n3-c2nnc(C(F)F)s2)C[C@H](C)N1 [Compound H001],1.1
30,C[C@H]1CN(c2cc(S(=O)(=O)NC3(C)CC3)cc3c2ncn3-c2nnc(C(F)F)s2)C[C@H](C)N1 [Compound B004],15.6
